# Data from ChEMBL document CHEMBL1156552, “Novel ligands rationally designed for characterizing I2-imidazoline binding sites nature and functions” (J Med Chem, 2008).
# The source made the active and inactive calls. The rule behind the calls is not given here.
# Columns and labels:
# [1] = species on record: Rattus norvegicus; experiment: Selectivity ratio, IC50 for Imidazoline receptor 1 in Sprague-Dawley rat kidney membrane to Ki for alpha2 adrenoceptor in Sprague-Dawley rat whole brain membrane; type: cell membranes
# [2] = test system: Mus musculus; experiment: Decrease in morphine-induced analgesia in CD1 mouse at 10 mg/kg, sc after 30 mins by tail flick test relative to control; type: functional; set-up: scale not given: the % may be the effect or the level left; details: route subcutaneous
# [3] = test system: Mus musculus; experiment: Antinociceptive activity in CD1 mouse at 10 mg/kg, sc after 30 mins by tail flick test; type: functional, organism-based; set-up: dose 10 mg/kg
# [4] = molecular target: T1, Nischarin (Rattus norvegicus, UniProt Q4G017); experiment: Displacement of [3H]clonidine from Imidazoline receptor 1 in Sprague-Dawley rat kidney membrane; type: cell membranes
# [5] = Displacement of [3H]RX821002 from Adrenergic alpha2 receptor in Sprague-Dawley rat whole brain membrane
# [6] = species on record: Rattus norvegicus; experiment: Selectivity ratio, IC50 for Imidazoline receptor 1 in Sprague-Dawley rat kidney membrane to Ki for Imidazoline receptor 2 in Sprague-Dawley rat whole brain membrane; type: cell membranes
# [7] = Displacement of [3H]2-BFI from Imidazoline receptor 2 in Sprague-Dawley rat whole brain membrane
# [8] = test system: Mus musculus; experiment: Increase in morphine-induced analgesia in CD1 mouse at 10 mg/kg, sc after 30 mins by tail flick test relative to control; type: functional; details: route subcutaneous
# [9] = test system: Mus musculus; experiment: Decrease in morphine-induced analgesia in CD1 mouse at 20 mg/kg, sc after 30 mins by tail flick test relative to control; type: functional; set-up: scale not given: the % may be the effect or the level left; details: route subcutaneous
# [10] = test system: Mus musculus; experiment: Antinociceptive activity in CD1 mouse at 20 mg/kg, sc after 30 mins by tail flick test; type: functional, organism-based; set-up: dose 20 mg/kg
# [11] = test system: Mus musculus; experiment: Reversal of decrease in morphine-induced analgesia in idazoxan pretreated CD1 mouse at 10 mg/kg, sc by tail flick assay; type: functional, organism-based; set-up: dose 10 mg/kg
# [12] = test system: Mus musculus; experiment: Effect on morphine-induced analgesia in yohimbine pretreated CD1 mouse at 10 mg/kg, sc by tail flick test; type: functional, organism-based; set-up: dose 10 mg/kg
# [13] = molecular target: T1, Nischarin; experiment: Displacement of [3H]clonidine from Imidazoline receptor 1 rat PC-12 cells; type: cell-based
# [14] = Binding affinity to Imidazoline receptor 2
# [15] = test system: Mus musculus; experiment: Effect on morphine-induced analgesia in efaroxan pretreated CD1 mouse at 10 mg/kg, sc by tail flick test; type: functional, organism-based; set-up: dose 10 mg/kg
# T1 sequence (Q4G017 whole entry): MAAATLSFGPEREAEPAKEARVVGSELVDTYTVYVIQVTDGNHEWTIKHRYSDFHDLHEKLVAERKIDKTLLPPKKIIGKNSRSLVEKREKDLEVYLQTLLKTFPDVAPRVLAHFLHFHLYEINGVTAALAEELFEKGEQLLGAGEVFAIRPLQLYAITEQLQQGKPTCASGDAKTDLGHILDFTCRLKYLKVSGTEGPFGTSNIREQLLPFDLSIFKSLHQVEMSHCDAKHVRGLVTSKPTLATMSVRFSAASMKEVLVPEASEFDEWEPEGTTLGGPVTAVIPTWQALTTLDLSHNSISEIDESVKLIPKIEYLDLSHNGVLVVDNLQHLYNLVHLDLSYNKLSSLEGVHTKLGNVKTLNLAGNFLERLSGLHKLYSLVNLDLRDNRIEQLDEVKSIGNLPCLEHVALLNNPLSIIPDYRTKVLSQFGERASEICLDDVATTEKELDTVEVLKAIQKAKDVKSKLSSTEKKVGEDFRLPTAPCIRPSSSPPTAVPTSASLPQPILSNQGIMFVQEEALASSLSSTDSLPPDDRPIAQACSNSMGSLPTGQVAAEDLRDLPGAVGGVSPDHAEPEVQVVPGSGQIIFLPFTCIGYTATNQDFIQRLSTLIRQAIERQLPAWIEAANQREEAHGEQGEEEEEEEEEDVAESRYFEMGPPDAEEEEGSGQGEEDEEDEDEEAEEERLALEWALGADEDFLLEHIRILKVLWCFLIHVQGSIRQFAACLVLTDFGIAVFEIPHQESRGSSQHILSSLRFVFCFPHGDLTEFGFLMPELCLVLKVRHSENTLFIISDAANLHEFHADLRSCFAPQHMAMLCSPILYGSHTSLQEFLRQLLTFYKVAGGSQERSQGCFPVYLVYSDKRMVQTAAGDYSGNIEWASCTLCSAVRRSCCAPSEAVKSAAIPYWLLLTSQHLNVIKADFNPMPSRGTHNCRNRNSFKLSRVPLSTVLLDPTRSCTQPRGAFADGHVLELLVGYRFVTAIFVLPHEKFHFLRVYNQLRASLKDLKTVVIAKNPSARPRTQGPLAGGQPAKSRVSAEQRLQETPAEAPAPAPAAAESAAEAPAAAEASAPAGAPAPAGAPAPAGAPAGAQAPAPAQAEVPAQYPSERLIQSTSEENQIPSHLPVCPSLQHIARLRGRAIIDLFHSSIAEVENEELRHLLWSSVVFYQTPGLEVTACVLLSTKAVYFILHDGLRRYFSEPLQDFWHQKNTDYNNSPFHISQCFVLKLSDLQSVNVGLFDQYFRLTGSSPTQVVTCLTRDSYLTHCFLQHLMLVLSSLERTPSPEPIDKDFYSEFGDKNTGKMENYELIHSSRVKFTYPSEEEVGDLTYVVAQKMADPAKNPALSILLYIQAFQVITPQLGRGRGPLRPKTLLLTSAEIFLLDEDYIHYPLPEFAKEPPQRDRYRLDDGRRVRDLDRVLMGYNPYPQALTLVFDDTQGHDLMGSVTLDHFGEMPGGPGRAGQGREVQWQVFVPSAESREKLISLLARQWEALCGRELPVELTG
Structure (SMILES),Ratio [1],IC50 [4],Ki [5],Ratio [6],Ki [7],Ki [13],pKi [14],Activity [2],Activity [3],Activity [8],Activity [9],Activity [10],Activity [11],Activity [12],Activity [15]
c1cncc(CCC2=NCCN2)c1,157,212000 nM,64800 nM,512,414 nM,–,–,–,inactive,23%,–,–,–,–,–
c1c[nH]c(CCC2=NCCN2)c1,13.9,23900 nM,3540 nM,94,254 nM,–,–,–,inactive,14%,–,–,–,–,–
C1CCC(CCC2=NCCN2)CC1,617,3570 nM,2960 nM,744,4.8 nM,–,–,–,inactive,30%,–,–,–,–,–
O=[N+]([O-])c1cccc(-c2ccccc2CCC2=NCCN2)c1,4.4,4000 nM,1120 nM,16,252 nM,–,–,–,–,–,-29%,inactive,–,–,–
c1ccc(-c2ccccc2CCC2=NCCN2)cc1,45,–,7130 nM,40,158 nM,6340 nM,6.8,-41%,–,–,–,–,Active,inactive,inactive
c1ccc(CCC2=NCCN2)cc1 [PHENYZOLINE],794,–,1980 nM,1480,2.5 nM,–,8.6,–,–,60%,–,–,Active,inactive,inactive

# Now those with a lower Ki [5], led by results:
Ratio [1],IC50 [4],Ki [5],Ratio [6],Ki [7],Ki [13],pKi [14],Structure (SMILES),Activity [2],Activity [3],Activity [8],Activity [9],Activity [10],Activity [11],Activity [12],Activity [15]
332,7360 nM,558 nM,4380,1.68 nM,–,–,Cc1ccccc1CCC1=NCCN1,-44%,inactive,–,–,–,–,–,–
12.6,7300 nM,926 nM,99.3,73.5 nM,–,–,Oc1ccccc1CCC1=NCCN1,-26%,inactive,–,–,–,–,–,–
328,25800 nM,381 nM,22300,1.16 nM,–,–,c1ccc2c(CCC3=NCCN3)cccc2c1,–,inactive,16%,–,–,–,–,–
197,4260 nM,295 nM,2840,1.5 nM,–,–,Clc1ccccc1CCC1=NCCN1,-34%,inactive,–,–,–,–,–,–
106,2880 nM,820 nM,373,7.72 nM,–,–,c1csc(CCC2=NCCN2)c1,–,inactive,34%,–,–,–,–,–
32.9,6890 nM,293 nM,775,8.89 nM,–,–,c1ccc(-c2ccsc2)c(CCC2=NCCN2)c1,-59%,inactive,–,–,–,–,–,–
